# pEC50: −log10 of the molar value.
# Assays:
# [1] = target: T1, KCNQ2/3 channels (Homo sapiens, UniProt O43525+O43526); experiment: Fluorescence assay using a voltage sensitive dye (fluorimetry); format: cell-based; conditions: CHO-K1 cells expressing KCNQ2/3 channels; for Emax: relative to retigabine (RTG) = 100%, read-out: Fluorimetry % efficacy (RTG = 100%)
# T1 construct: expressed in transfected cells; host or cells: CHO-K1 cells kept under selection antibiotics
# Protocol: Pharmacological Experiments Method I. Fluorescence Assay Using a Voltage Sensitive Dye (Fluorimetry)
# […] CHO-K1 cells expressing KCNQ2/3 channels are cultivated adherently at 37° C., 5% CO2 and 95% humidity in cell culture bottles (e.g. 80 cm^2 TC flasks, Nunc) with DMEM-high glucose (Sigma Aldrich, D7777) including 10% FCS (PAN Biotech, e.g. 3302-P270521) or alternatively MEM Alpha Medium (1×, liquid, Invitrogen, #22571), 10% fetal calf serum (FCS) (Invitrogen, #10270-106, heat-inactivated) and the necessary selection antibiotics.
# Before being sown out for the measurements, the cells are washed with 1×DPBS buffer Ca^2+/Mg^2+-free (e.g. Invitrogen, #14190-094) and detached from the bottom of the culture vessel by using Accutase (PAA Laboratories, #L11-007) (incubation with Accutase for 15 min at 37° C.). The cell number is determined using a CASY™ cell counter (TCC, Schärfe System). Depending on the optimal density for each individual cell line, 20,000-30,000 cells/well/100 μl are seeded onto 96-well Corning™ CellBIND™ assay plates (Flat Clear Bottom Black Polystyrene Microplates, #3340). Freshly seeded cells are then left to settle for one hour at room temperature, followed by incubation for 24 hours at 37° C., 5% CO2 and 95% humidity.
# The voltage-sensitive fluorescent dye from the Membrane Potential Assay Kit (Red™ Bulk format part R8123 for FLIPR, MDS Analytical Technologies™) is prepared by dissolving the contents of one vessel Membrane Potential Assay Kit Red Component A in 200 ml of extracellular buffer (ES buffer, 120 mM NaCl, 1 mM KCl, 10 mM HEPES, 2 mM CaCl2, 2 mM MgCl2, 10 mM glucose; pH 7.4). After removal of the nutrient medium, the cells are washed once with 200 μl of ES buffer, then loaded for 45 min at room temperature in 100 μl of dye solution in the dark.
# Fluorescence measurements are carried out in a BMG Labtech FLUOstar™, BMG Labtech NOVOstar™ or BMG Labtech POLARstar™ instrument (525 nm excitation, 560 nm emission, Bottom Read mode). After incubation with the dye, 50 μl of the test substances in the desired concentrations, or 50 μl of ES buffer for control purposes, are applied to the wells of the assay plate and incubated for 30 min at room temperature while being shielded from light. The fluorescence intensity of the dye is then measured for 5 min and the fluorescence value F1 of each well is thus determined at a given, constant time. 15 μl of a KCl solution are then added to each well (final concentration of potassium ions 92 mM). The change in fluorescence intensity is subsequently monitored until all the relevant values have been obtained (mainly 5-30 min). At a given time post KCl application, a fluorescence value F2 is determined, in this case at the time of the fluorescence peak.
# For calculation, the fluorescence intensity F2 is corrected for the fluorescence intensity F1, and the activity (ΔF/F) of the target compound on the potassium channel is determined as follows:
# In order to determine whether a substance has agonistic activity,
# A substance has an agonistic activity on the potassium channel if
# [formula] increases dose dependently.
# Calculations of EC50 and IC50 values are carried out with the aid of ‘Prism v4.0’ software (GraphPad Software™).
# [2] = tested on: rat; experiment: Low-intensity tail flick test (rat); format: in vivo; conditions: for ED50: po, peroral, at time of maximum efficacy
# Protocol: Method II. Low-Intensity Tail Flick Test (Rat)
# In the low-intensity tail flick test, the determination of the antinociceptive effect of the compounds according to the invention towards an acute noxious thermal stimulus is carried out by measuring the withdrawal reflex of the rat tail (tail flick) in response to a radiant heat beam (analgesia meter; model 2011 of the company Rhema Labortechnik, Hofheim, Germany) according to the method described by D'Amour and Smith (J. Pharm. Exp. Ther. 72, 74 79 (1941). To this end, the rats were placed in a plexiglas restrainer, and a low-intensity radiant heat beam (48° C.) was focused onto the dorsal surface of the tail root. The stimulus intensity was adjusted to result in a mean pre-drug control withdrawal latency of about 7 s, thus also allowing a supraspinal modulation of the spinally mediated acute nociceptive reflex. A cutoff time of 30 s was applied to avoid tissue damage. Male Sprague-Dawley rats (Janvier, Le Genest St. Isle, Frankreich) with weights of 200-250 g were used. 10 rats were used per group. Before administration of a compound according to the invention, the animals were pre-tested twice in the course of five minutes and the mean of these measurements was calculated as the pre-test mean. The antinociceptive effect was determined at 20, 40 and 60 min after peroral compound administration. The antinociceptive effect was calculated based on the increase in the tail withdrawal latency according to the following formula and is expressed as percentage of the maximum possible effect (MPE [%]): MPE=[(T1−T0)/(T2−T0)]*100
# In this, T0 is the control latency time before and T1 the latency time after administration of the compound, T2 is the cutoff time and MPE is the maximum possible effect. Employing variant analysis (repeated measures ANOVA) allowed testing of statistically significant differences between the compounds according to the invention and the vehicle group. The significance level was set to p≦0.05. To determine the dose dependency, the particular compound according to the invention was administered in 3-5 logarithmically increasing doses, including a threshold dose and a maximum effective dose, and the ED50 values were determined with the aid of regression analysis. The ED50 calculation was performed at the time of maximum efficacy (usually 20 min after administration of the compounds).
Compound,pEC50 [1],Emax [1] [%],ED50 [2] [mg/kg],"Low intensity tail flick, rat, peroral, MPE (dose) ([2]; dose 10.00 mg/kg)","Low intensity tail flick, rat, peroral, MPE (dose) ([2]; dose 3.16 mg/kg)"
"Cc1c(C(=O)NCc2cccc(F)c2)c(=O)n(C)c2cc(C(F)(F)F)ccc12 [Example 1, N-[(3-fluorophenyl)-methyl]-1,4-dimethyl-2-oxo-7-(trifluoromethyl)-1H-quinoline-3-carboxylic acid amide]",6.61,177,2.3,–,–
"Cc1c(C(=O)NCc2cccc(F)c2)c(=S)n(C)c2cc(C(F)(F)F)ccc12 [Example 3, N-[(3-fluorophenyl)-methyl]-1,4-dimethyl-2-thioxo-7-(trifluoromethyl)-1H-quinoline-3-carboxylic acid amide]",6.91,101,–,24 (10.00) %,–
"COCCn1c(=O)c(C(=O)NCc2cccc(F)c2)c(C)c2ccc(C(F)(F)F)cc21 [Example 4, N-[(3-fluorophenyl)-methyl]-1-(2-methoxy-ethyl)-4-methyl-2-oxo-7-(trifluoromethyl)-1H-quinoline-3-carboxylic acid amide]",6.07,195,2.8,–,–
"Cc1c(C(=O)NCc2ccc(F)cc2)c(=O)n(C)c2cc(C(F)(F)F)ccc12 [Example 6, N-[(4-fluorophenyl)-methyl]-1,4-dimethyl-2-oxo-7-(trifluoromethyl)-1H-quinoline-3-carboxylic acid amide]",6.72,169,0.6,–,–
"COCCn1c(=O)c(C(=O)NCc2ccc(F)cc2)c(C)c2ccc(C(F)(F)F)cc21 [Example 7, N-[(4-fluorophenyl)-methyl]-1-(2-methoxy-ethyl)-4-methyl-2-oxo-7-(trifluoromethyl)-1H-quinoline-3-carboxylic acid amide]",6.22,146,–,–,47 (3.16) %
"Cc1c(C(=O)NCc2cccc(F)c2)c(=O)n(C)c2cc(F)ccc12 [Example 34, 7-fluoro-N-[(3-fluorophenyl)-methyl]-1,4-dimethyl-2-oxo-1H-quinoline-3-carboxylic acid amide]",5.50,105,–,–,–
"COCC(C)n1c(=O)c(C(=O)NCc2cccc(F)c2)c(C)c2ccc(C(F)(F)F)cc21 (stereo not drawn) [Example 35, N-[(3-fluorophenyl)-methyl]-1-(2-methoxy-1-methyl-ethyl)-4-methyl-2-oxo-7-(trifluoromethyl)-1H-quinoline-3-carboxylic acid amide]",6.94,118,–,–,–
"Cc1c(C(=O)NCc2ccc(F)cc2)c(=S)n(C)c2cc(C(F)(F)F)ccc12 [Example 36, N-[(4-fluorophenyl)-methyl]-1,4-dimethyl-2-thioxo-7-(trifluoromethyl)-1H-quinoline-3-carboxylic acid amide]",6.90,99,–,–,–
"Cc1c(C(=O)NCc2cccc(F)c2)c(=O)n(C)c2cc(Cl)ccc12 [Example 37, 7-chloro-N-[(3-fluorophenyl)-methyl]-1,4-dimethyl-2-oxo-1H-quinoline-3-carboxylic acid amide]",6.14,139,–,–,–
"Cc1c(C(=O)NCc2cccc(F)c2)c(=O)n(CCO)c2cc(C(F)(F)F)ccc12 [Example 38, N-[(3-fluorophenyl)-methyl]-1-(2-hydroxy-ethyl)-4-methyl-2-oxo-7-(trifluoromethyl)-1H-quinoline-3-carboxylic acid amide]",5.74,160,–,–,–
"CCOCCn1c(=O)c(C(=O)NCc2cccc(F)c2)c(C)c2ccc(C(F)(F)F)cc21 [Example 39, 1-(2-ethoxy-ethyl)-N-[(3-fluorophenyl)-methyl]-4-methyl-2-oxo-7-(trifluoromethyl)-1H-quinoline-3-carboxylic acid amide]",–,43,–,–,–
"Cc1c(C(=O)NCc2cccc(F)c2)c(=O)n(C(C)C)c2cc(C(F)(F)F)ccc12 [Example 40, N-[(3-fluorophenyl)-methyl]-1-isopropyl-4-methyl-2-oxo-7-(trifluoromethyl)-1H-quinoline-3-carboxylic acid amide]",7.12,145,–,–,–
"CCCCCn1c(=O)c(C(=O)NCc2cccc(F)c2)c(C)c2ccc(C(F)(F)F)cc21 [Example 41, N-[(3-fluorophenyl)-methyl]-4-methyl-2-oxo-1-pentyl-7-(trifluoromethyl)-1H-quinoline-3-carboxylic acid amide]",–,18,–,–,–
"Cn1c(=O)c(C(=O)NCc2cccc(F)c2)c(C(F)(F)F)c2ccccc21 [Example 42, N-[(3-fluorophenyl)-methyl]-1-methyl-2-oxo-4-(trifluoromethyl)-1H-quinoline-3-carboxylic acid amide]",5.30,103,–,–,–
"COC(C)Cn1c(=O)c(C(=O)NCc2cccc(F)c2)c(C)c2ccc(C(F)(F)F)cc21 (stereo not drawn) [Example 43, N-[(3-fluorophenyl)-methyl]-1-(2-methoxy-propyl)-4-methyl-2-oxo-7-(trifluoromethyl)-1H-quinoline-3-carboxylic acid amide]",5.77,100,–,–,–
"Cc1c(C(=O)NCc2cccc(F)c2)c(=O)n(C2CCOCC2)c2cc(C(F)(F)F)ccc12 [Example 44, N-[(3-fluorophenyl)-methyl]-4-methyl-2-oxo-1-tetrahydro-pyran-4-yl-7-(trifluoromethyl)-1H-quinoline-3-carboxylic acid amide]",–,36,–,–,–
"COc1c(C(=O)NCc2cccc(F)c2)c(=O)n(C)c2cc(C(F)(F)F)ccc12 [Example 45, N-[(3-fluorophenyl)-methyl]-4-methoxy-1-methyl-2-oxo-7-(trifluoromethyl)-1H-quinoline-3-carboxylic acid amide]",6.67,190,–,–,–
